In brackets after ≈: the same amount, converted by molar mass.
What was measured:
Human CB1 receptor [1] = target: T1, Human CB1 receptor (Homo sapiens, UniProt P21554); assay: hCB1 receptor binding (3H-CP55,940 displacement)
T1 construct: purchased Receptor Biology
Experimental: Human CB1 receptor from Receptor Biology (hCB1) or human CB2 receptor from BioSignal (hCB2) membranes are thawed at 37° C., passed 3 times through a 25-gauge blunt-end needle, diluted in the cannabinoid binding buffer (50 mM Tris, 2.5 mM EDTA, 5 mM MgCl2, and 0.5 mg/mL BSA fatty acid free, pH 7.4) and aliquots containing the appropriate amount of protein are distributed into 96-well plates. The IC50 of the compounds of the invention at hCB1 and hCB2 are evaluated from 10-point dose-response curves done with ^3H-CP55,940 at 20000 to 25000 dpm per well (0.17-0.21 nM) in a final volume of 300 μl. The total and non-specific binding are determined in the absence and presence of 0.2 μM of HU210 respectively. The plates are vortexed and incubated for 60 minutes at room temperature, filtered through Unifilters GF/B (presoaked in 0.1% polyethyleneimine) with the Tomtec or Packard harvester using 3 mL of wash buffer (50 mM Tris, 5 mM MgCl2, 0.5 mg BSA pH 7.0). The filters are dried for 1 hour at 55° C. The radioactivity (cpm) is counted in a TopCount (Packard) after adding 65 μl/well of MS-20 scintillation liquid.
Based on the above assays, the dissociation constant (Ki) for a particular compound of the invention towards a particular receptor is determined using the following equation: Ki=IC50/(1+[rad]/Kd),
Wherein IC50 is the concentration of the compound of the invention at which 50% displacement has been observed;
[rad] is a standard or reference radioactive ligand concentration at that moment; and
Kd is the dissociation constant of the radioactive ligand towards the particular receptor.

Human CB1 receptor [2] = target: T1, Human CB1 receptor; assay: hCB1 GTPγS binding; format: biochemical; settings: human CB1 membranes, GTPg35S binding
Experimental: Human CB1 receptor from Receptor Biology (hCB1) or human CB2 receptor membranes (BioSignal) are thawed at 37° C., passed 3 times through a 25-gauge blunt-end needle and diluted in the GTPγS binding buffer (50 mM Hepes, 20 mM NaOH, 100 mM […], 1 mM EDTA, 5 mM MgCl2, pH 7.4, 0.1% BSA). The EC50 and Emax of the compounds of the invention are evaluated from 10-point dose-response curves done in […] with the appropriate amount of membrane protein and 100000-130000 dpm of GTPg^35S per well (0.11-0.14 nM). The basal and maximal stimulated binding is determined in absence and presence of 1 μM (hCB2) or 10 μM (hCB1) Win 55,212-2 respectively. The membranes are pre-incubated for 5 minutes with 56.25 μM (hCB2) or 112.5 μM (hCB1) GDP prior to distribution in plates (15 μM (hCB2) or 30 μM (hCB1) GDP final). The plates are vortexed and incubated for 60 minutes at room temperature, filtered on Unifilters GF/B (presoaked in water) with the Tomtec or Packard harvester using 3 ml of wash buffer (50 mM Tris, 5 mM MgCl2, 50 mM NaCl, pH 7.0). The filters are dried for 1 hour at 55° C. The radioactivity (cpm) is counted in a TopCount (Packard) after adding 65 μl/well of MS-20 scintillation liquid. Antagonist reversal studies are done in the same way except that (a) an agonist dose-response curve is done in the presence of a constant concentration of antagonist, or (b) an antagonist dose-response curve is done in the presence of a constant concentration of agonist.

T1 sequence (P21554 whole entry): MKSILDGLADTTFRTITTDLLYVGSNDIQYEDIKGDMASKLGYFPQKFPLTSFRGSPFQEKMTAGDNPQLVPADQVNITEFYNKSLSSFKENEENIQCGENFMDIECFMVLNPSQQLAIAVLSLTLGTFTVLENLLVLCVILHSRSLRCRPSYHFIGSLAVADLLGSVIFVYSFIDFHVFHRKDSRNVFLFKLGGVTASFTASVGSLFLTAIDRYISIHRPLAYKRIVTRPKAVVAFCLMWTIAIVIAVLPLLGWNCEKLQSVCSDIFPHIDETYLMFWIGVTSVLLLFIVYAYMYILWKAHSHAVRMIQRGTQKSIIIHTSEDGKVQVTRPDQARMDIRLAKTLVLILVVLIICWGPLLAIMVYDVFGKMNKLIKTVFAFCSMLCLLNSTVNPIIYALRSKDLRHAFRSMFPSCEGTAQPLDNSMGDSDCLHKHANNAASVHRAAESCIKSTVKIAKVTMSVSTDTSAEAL

SMILES	Ki (Human CB1 receptor [1]) [µM]	solubility (Solubility) [µM]	EC50 (Human CB1 receptor [2]) [µM]
CC(C)(C)c1nc2cc(S(=O)(=O)N3CCC[C@H](C(=O)NC4CC4)C3)ccc2n1CC1CCC(F)(F)CC1 [(3S)-1-({2-tert-Butyl-1-[(4,4-difluorocyclohexyl)methyl]-1H-benzimidazol-5-yl}sulfonyl)-N-cyclopropylpiperidine-3-carboxamide]	0.00205	29.4 (≈ 15.8 µg/mL)	0.00171
CC(C)(C)c1nc2cc(S(=O)(=O)N3CCCC(c4ccccc4)C3)ccc2n1CC1CCOCC1 (stereo not drawn) [2-tert-Butyl-5-[(3-phenylpiperidin-1-yl)sulfonyl]-1-(tetrahydro-2H-pyran-4-ylmethyl)-1H-benzimidazole]	0.278	0.79 (≈ 0.392 µg/mL)	
CCNC(=O)c1ccn(S(=O)(=O)c2ccc3c(c2)nc(C(C)(F)F)n3CC2CCOCC2)c1 [1-{[2-(1,1-Difluoroethyl)-1-(tetrahydro-2H-pyran-4-ylmethyl)-1H-benzimidazol-5-yl]sulfonyl}-N-ethyl-1H-pyrrole-3-carboxamide]	0.088	7.45 (≈ 3.58 µg/mL)	
CC(C)(C)c1nc2cc(S(=O)(=O)n3ccc(N)n3)ccc2n1CC1CCOCC1 [1-{[2-tert-Butyl-1-(tetrahydro-2H-pyran-4-ylmethyl)-1H-benzimidazol-5-yl]sulfonyl}-1H-pyrazol-3-amine]	0.252	43 (≈ 18 µg/mL)	
CC(C)(C)c1nc2cc(S(=O)(=O)N3CCOCC3)ccc2n1CC1CCOCC1 [2-tert-Butyl-5-(morpholin-4-ylsulfonyl)-1-(tetrahydro-2H-pyran-4-ylmethyl)-1H-benzimidazole]	1.53	128 (≈ 54.1 µg/mL)	
CCNC(=O)[C@@H]1CN(S(=O)(=O)c2ccc3c(c2)nc(C(C)(C)C)n3CC2CCC(F)(F)CC2)CCO1 [(2S)-4-({2-tert-butyl-1-[(4,4-difluorocyclohexyl)methyl]-1H-benzimidazol-5-yl}sulfonyl)-N-ethylmorpholine-2-carboxamide]	0.018	43.4 (≈ 22.8 µg/mL)	0.0438
CNC(=O)c1cnn(S(=O)(=O)c2ccc3c(c2)nc(C(C)(C)C)n3CC2CCC(F)(F)CC2)c1 [1-({2-tert-Butyl-1-[(4,4-difluorocyclohexyl)methyl]-1H-benzimidazol-5-yl}sulfonyl)-N-methyl-1H-pyrazole-4-carboxamide]	0.00161	2.52 (≈ 1.24 µg/mL)	0.00121
CC(F)(F)c1nc2cc(S(=O)(=O)n3ccc(C(=O)NC4CC4)c3)ccc2n1CC1CCOCC1 [N-Cyclopropyl-1-{[2-(1,1-difluoroethyl)-1-(tetrahydro-2H-pyran-4-ylmethyl)-1H-benzimidazol-5-yl]sulfonyl}-1H-pyrrole-3-carboxamide]	0.0191	6.2 (≈ 3.05 µg/mL)	0.0178
CC(C)NC(=O)c1cnn(S(=O)(=O)c2ccc3c(c2)nc(C(C)(C)C)n3CC2CCC(F)(F)CC2)c1 [1-({2-tert-Butyl-1-[(4,4-difluorocyclohexyl)methyl]-1H-benzimidazol-5-yl}sulfonyl)-N-isopropyl-1H-pyrazole-4-carboxamide]	0.00182	0.26 (≈ 0.136 µg/mL)	0.00341
CC(C)(C)c1nc2cc(S(=O)(=O)n3ccc(C(=O)NC4CC4)c3)ccc2n1CC1CCOCC1 [1-{[2-tert-Butyl-1-(tetrahydro-2H-pyran-4-ylmethyl)-1H-benzimidazol-5-yl]sulfonyl}-N-cyclopropyl-1H-pyrrole-3-carboxamide]	0.00568	5.64 (≈ 2.73 µg/mL)	0.0105
CC(C)(C)c1nc2cc(S(=O)(=O)n3cc(C(=O)NC4CC4)cn3)ccc2n1CC1CCC(F)(F)CC1 [1-({2-tert-Butyl-1-[(4,4-difluorocyclohexyl)methyl]-1H-benzimidazol-5-yl}sulfonyl)-N-cyclopropyl-1H-pyrazole-4-carboxamide]	0.00088	6.16 (≈ 3.2 µg/mL)	0.00058
CCCNC(=O)[C@H]1CCCN(S(=O)(=O)c2ccc3c(c2)nc(C(C)(C)C)n3CC2CCC(F)(F)CC2)C1 [(3S)-1-({2-tert-Butyl-1-[(4,4-difluorocyclohexyl)methyl]-1H-benzimidazol-5-yl}sulfonyl)-N-propylpiperidine-3-carboxamide]	0.00203	16.8 (≈ 9.04 µg/mL)	0.00169
CCNC(=O)c1cnn(S(=O)(=O)c2ccc3c(c2)nc(C(C)(C)C)n3CC2CCOCC2)c1 [1-{[2-tert-Butyl-1-(tetrahydro-2H-pyran-4-ylmethyl)-1H-benzimidazol-5-yl]sulfonyl}-N-ethyl-1H-pyrazole-4-carboxamide]	0.0146	337 (≈ 160 µg/mL)	0.0572
CC(C)(C)c1nc2cc(S(=O)(=O)N3CCOC(C(=O)NC4CC4)C3)ccc2n1CC1CCC(F)(F)CC1 (stereo not drawn) [4-({2-tert-Butyl-1-[(4,4-difluorocyclohexyl)methyl]-1H-benzimidazol-5-yl}sulfonyl)-N-cyclopropylmorpholine-2-carboxamide]	0.0114	42.5 (≈ 22.9 µg/mL)	0.0104
CCNC(=O)c1ccn(S(=O)(=O)c2ccc3c(c2)nc(C(C)(C)C)n3CC2CCOCC2)c1 [1-{[2-tert-butyl-1-(tetrahydro-2H-pyran-4-ylmethyl)-1H-benzimidazol-5-yl]sulfonyl}-N-ethyl-1H-pyrrole-3-carboxamide]	0.0242	28 (≈ 13.2 µg/mL)	0.0843
CNC(=O)C1CCN(S(=O)(=O)c2ccc3c(c2)nc(C(C)(C)C)n3CC2CCOCC2)C1 (stereo not drawn) [1-{[2-tert-Butyl-1-(tetrahydro-2H-pyran-4-ylmethyl)-1H-benzimidazol-5-yl]sulfonyl}-N-methylpyrrolidine-3-carboxamide]	0.833	2600 (≈ 1200 µg/mL)	
CC(C)(C)c1nc2cc(S(=O)(=O)N3CCC(c4ccccc4)C3)ccc2n1CC1CCOCC1 (stereo not drawn) [2-tert-Butyl-5-[(3-phenylpyrrolidin-1-yl)sulfonyl]-1-(tetrahydro-2H-pyran-4-ylmethyl)-1H-benzimidazole]	0.11	7.29 (≈ 3.51 µg/mL)	
